From patent US20220356164A1, “2-AMINOSELENOPHEN COMPOUNDS WITH ANTI-DRUG RESISTANT BACTERIA ACTIVITY AND A METHOD OF PREPARING THE SAME” (ZHUHAI JINAN SELENIUM SOURCE NANOTECHNOLOGY CO., LTD., priority 2021, published 2022)
Converted amounts (≈) assume the structure as drawn. Like-named read-outs stand apart in the source and are kept apart here.

Key:
Type in all cases: cell-based
[1] = system: methicillin-resistant Staphylococcus aureus MRSA 18-575; test: micro broth dilution MIC, MRSA 18-575; settings: read-out: The minimum inhibitory concentration, MRSA 18-575
Description: (§1) Using micro broth dilution method, with ceftazidime and vancomycin as positive controls, test the minimum inhibitory concentration (MIC) of compounds 9, 11, and 14.
(§2) The experimental strains included drug-resistant gram-positive bacteria: methicillin-resistant Staphylococcus aureus MRSA 18-575, 18-596; drug-resistant gram-negative bacteria: multi-drug-resistant Pseudomonas aeruginosa MDR-PA 18-126, 18-756. The experimental strains were all donated by Huashan Hospital Affiliated to Fudan University (Fudan University Antibiotic Research Institute), and used after being identified by conventional methods.
(§3) The specific steps are as follows:
(§4) Preparation of MHB medium: Weigh 20.0 g of MHB medium, add it to 1L of distilled water, heat and boil until it is completely dissolved, divide it into conical flasks, autoclave at 121° C. for 15 minutes, and set aside.
(§5) Cultivate the experimental strains to the logarithmic growth phase: under aseptic conditions, inoculate the experimental strains into 100 mL of MHB medium, and place them in a constant temperature and humidity incubator at 37° C. for 20-22 hours for use.
(§6) Preparation of stock solution: Weigh the sample to be tested and dissolve it with 1% DMSO solution to prepare a stock solution with a concentration of 2560 μg/mL; weigh the positive control substance and dissolve it with sterile distilled water to prepare a stock solution with a concentration of 2560 μg/mL.
(§7) Bacterial suspension preparation: Under aseptic conditions, the experimental strains cultured to the logarithmic growth phase are calibrated to 0.5 McDonald's unit turbidity standard with MHB medium and diluted at a ratio of […] to prepare a concentration of 10^6 CFU/mL Bacterial suspension, spare.
(§8) Stock solution dilution and inoculation of experimental strains: under aseptic conditions, dilute the stock solution to a solution of 256 μg/mL. Take a sterile 96-well plate, add 100 μL of MHB medium to each well except for wells 1-3; add 100 μL of positive control solution to well 2 and 100 μL of compound sample solution to wells 3 and 4; Mix the sample solution in the well with the culture medium, and then pipet 100 μL to the fifth well. After mixing, pipet 100 μL to the sixth well, and then dilute to the tenth well by successive times, and then take 100 μL from the tenth well and discard it. The 11th well is a growth control without drugs; then, add 100 μL of the above-prepared bacterial suspension to each well, so that the final bacterial concentration in each well is 5×10^5 CFU/mL; at this point, the positive control concentration is 128 μg/mL, the concentration of the sample solution is 128, 64, 32, 16, 8, 4, 2, 1 μg/mL.
(§9) Incubation: Cover the 96-well plate that has been inoculated with experimental strains and place it in a constant temperature and humidity box at 37° C. for 20-22 hours.
(§10) Record the results as shown in FIGS. 1 to 10 (the holes are in order from left to right corresponding to positive, 128, 64, 32, 16, 8, 4, 2, 1, negative) and Table 1.

[2] = system: multi-drug-resistant Pseudomonas aeruginosa MDR-PA 18-756; test: micro broth dilution MIC, MDR-PA 18-756; settings: read-out: The minimum inhibitory concentration, MDR-PA 18-756
Description: as §1, §2, §3, §4, §5, §6, §7
as §8, with “1 μg/mL. […]” for “1 μg/mL.”

[3] = system: methicillin-resistant Staphylococcus aureus MRSA 18-596; test: micro broth dilution MIC, MRSA 18-596
Description: as §1, §2, §3, §4, §5, §6, §7, §8, §9, §10

[4] = system: multi-drug-resistant Pseudomonas aeruginosa MDR-PA 18-126; test: micro broth dilution MIC, MDR-PA 18-126
Description: as §1, §2, §3, §4, §5, §6, §7, §8, §9, §10

[5] = MRSA, read-out: The minimum inhibitory concentration, MRSA 18-596
[6] = read-out: The minimum inhibitory concentration, MDR-PA 18-126

| Structure (SMILES) | MIC ([1]; MRSA) [µg/mL] | MIC [2] [µg/mL] | MIC ([3]; MRSA, read-out: MIC against drug-resistant gram-positive bacteria MRSA) [µg/mL] | MIC [3, 5] [µg/mL] | MIC ([4]; read-out: MIC against MDR-PA) [µg/mL] | MIC [4, 6] [µg/mL] | MIC ([1]; strain MRSA 18-575, MHB medium, 37° C., 20-22 hours) [µg/mL] | MIC ([2]; strain MDR-PA 18-756, MHB medium, 37° C., 20-22 hours) [µg/mL] | MIC ([3]; strain MRSA 18-596, MHB medium, 37° C., 20-22 hours, read-out: The minimum inhibitory concentration, MRSA 18-596) [µg/mL] | MIC ([4]; strain MDR-PA 18-126, MHB medium, 37° C., 20-22 hours, read-out: The minimum inhibitory concentration, MDR-PA 18-126) [µg/mL] |
| --- | --- | --- | --- | --- | --- | --- | --- | --- | --- | --- |
| N#Cc1c(N)[se]c2c1CCCCC2 [Compound 11] | 32 (≈ 134 µM) | 64 (≈ 268 µM) | 16 (≈ 66.9 µM) | 16 (≈ 66.9 µM) | 64 (≈ 268 µM) | 64 (≈ 268 µM) | – | – | – | – |
| CC(C)(O/N=C(\C(=O)N[C@@H]1C(=O)N2C(C(=O)[O-])=C(C[n+]3ccccc3)CS[C@H]12)c1csc(N)n1)C(=O)O [Ceftazidime, reference compound] | – | – | – | – | – | – | 128 (≈ 234 µM) | 128 (≈ 234 µM) | 128 (≈ 234 µM) | 128 (≈ 234 µM) |
| CCCCc1c[se]c(N)c1C#N [Compound 14] | 128 (≈ 563 µM) | > 128 | – | 64 (≈ 282 µM) | – | 64 (≈ 282 µM) | – | – | – | – |
| CN[C@H](CC(C)C)C(=O)N[C@H]1C(=O)N[C@@H](CC(N)=O)C(=O)N[C@H]2C(=O)N[C@H]3C(=O)N[C@H](C(=O)N[C@H](C(=O)O)c4cc(O)cc(O)c4-c4cc3ccc4O)[C@H](O)c3ccc(c(Cl)c3)Oc3cc2cc(c3O[C@@H]2O[C@H](CO)[C@@H](O)[C@H](O)[C@H]2O[C@H]2C[C@](C)(N)[C@H](O)[C@H](C)O2)Oc2ccc(cc2Cl)[C@H]1O [Vancomycin, reference compound] | 512 (≈ 353 µM) | – | – | 512 (≈ 353 µM) | – | – | – | – | – | – |
| N#Cc1c(N)[se]c2c1CCCC2 [Compound 9] | 128 (≈ 569 µM) | 128 (≈ 569 µM) | – | 128 (≈ 569 µM) | – | > 128 | – | – | – | – |
